In patent US20240294498A1, “FACTOR XIIA INHIBITORS” (Lunac Therapeutics Ltd, priority 2021, published 2024):

Columns and labels:
Format in all cases: biochemical
FXIIa = target: T1, FXIIa (Homo sapiens, UniProt P00748); assay: Determination of Factor XIIa inhibition (chromogenic substrate S-2302); conditions: human FXIIa alpha, Ki category
T1 construct: FXIIa alpha
T1 sequence (P00748 373-615 limits assumed): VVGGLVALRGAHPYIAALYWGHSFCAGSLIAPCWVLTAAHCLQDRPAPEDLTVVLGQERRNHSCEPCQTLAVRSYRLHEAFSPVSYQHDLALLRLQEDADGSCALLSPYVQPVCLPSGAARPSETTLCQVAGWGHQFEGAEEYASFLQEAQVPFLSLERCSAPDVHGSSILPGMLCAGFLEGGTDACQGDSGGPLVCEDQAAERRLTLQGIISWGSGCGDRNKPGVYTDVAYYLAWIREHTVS
T1 sequence (P00748 20-372 partner limits assumed): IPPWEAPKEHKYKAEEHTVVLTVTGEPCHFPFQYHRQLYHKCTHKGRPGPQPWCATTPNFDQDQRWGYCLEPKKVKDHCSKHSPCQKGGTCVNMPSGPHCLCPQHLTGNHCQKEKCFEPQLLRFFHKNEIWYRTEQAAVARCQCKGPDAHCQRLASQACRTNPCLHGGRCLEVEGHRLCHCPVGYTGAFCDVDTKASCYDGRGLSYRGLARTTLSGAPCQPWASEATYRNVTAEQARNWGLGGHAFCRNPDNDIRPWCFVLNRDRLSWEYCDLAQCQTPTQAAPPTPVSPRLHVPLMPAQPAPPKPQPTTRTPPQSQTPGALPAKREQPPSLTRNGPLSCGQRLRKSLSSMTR
How it was run: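 Compound preincubated with 10 nM FXIIa for 10 min at 37° C in 50 mM Tris, 137 mM NaCl, pH 7.4, 5% DMSO, top concentration 500 μM; S-2302 added at Km. pNA release followed at 405 nm for 3 h; IC50 from initial rates, converted to Ki via Ki = IC50/(1+[S]/Km).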

thrombin = target: T2, thrombin (Homo sapiens, UniProt P00734); assay: Determination of selectivity: thrombin inhibition (chromogenic substrate GPR); conditions: fold selectivity for FXIIa over thrombin (human); category
T2 construct: FXa (5 nM) and thrombin (5 nM)
How it was run: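 Thrombin (5 nM) preincubated with increasing compound concentrations (top 500 μM, 5% DMSO) 10 min at 37 °C in 50 mM Tris, 137 mM NaCl pH 7.4, then GPR chromogenic substrate at its KM. pNA release read kinetically at 405 nm for 3 h at 37 °C. IC50 from initial rates, converted to Ki via Cheng–Prusoff.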

FXa = FXa (Homo sapiens, UniProt P00742); assay: Determination of selectivity: FXa inhibition (chromogenic substrate S2765); conditions: fold selectivity for FXIIa over FXa (human); category
How it was run: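 FXa (5 nM) preincubated with increasing compound (top 500 μM) for 10 mins at 37° C in 50 mM Tris, 137 mM NaCl pH 7.4, 5% DMSO, then S2765 added at its KM. Absorbance at 405 nm followed kinetically for 3 hours; IC50 from initial rates, converted to Ki by Cheng-Prusoff.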

Sequence of FXa (P00742 235-488 limits assumed): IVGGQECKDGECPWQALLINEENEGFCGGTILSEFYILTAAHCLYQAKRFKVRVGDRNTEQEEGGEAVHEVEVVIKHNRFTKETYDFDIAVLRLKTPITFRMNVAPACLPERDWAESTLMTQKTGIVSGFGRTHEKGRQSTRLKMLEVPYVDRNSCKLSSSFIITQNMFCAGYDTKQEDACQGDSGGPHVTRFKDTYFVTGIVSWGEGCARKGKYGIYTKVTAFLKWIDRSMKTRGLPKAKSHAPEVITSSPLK
Sequence of FXa (P00742 41-179 partner limits assumed): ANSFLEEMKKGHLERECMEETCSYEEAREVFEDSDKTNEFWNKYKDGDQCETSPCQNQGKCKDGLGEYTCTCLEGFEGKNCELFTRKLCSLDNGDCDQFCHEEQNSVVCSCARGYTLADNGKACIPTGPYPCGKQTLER

Row | Ki (FXIIa) [nM] | FXa (human)/FXIIa alpha (human) (FXa) | SMILES | Thrombin (human)/FXIIa alpha (human) (thrombin)
1 | < 200 | ∘∘∘ | Cc1ccc(C[C@@H]2C[C@@H](C(=O)NCc3ccc4c(cnn4C)c3)N(C(=O)[C@@H]3NCCC[C@@H]3C(=O)N(C)CCN3CC(F)C3)C2)cc1 [Example M06099, (2R,3S)-N-(2-(3-fluoroazetidin-1-yl)ethyl)-N-methyl-2-((2S,4R)-2-(((1-methyl-1H-indazol-5-yl)methyl)carbamoyl)-4-(4-methylbenzyl)pyrrolidine-1-carbonyl)piperidine-3-carboxamide] | +++ (fold selectivity values greater than 100)
2 | < 200 | ∘∘∘ | Cc1ccc(C[C@@H]2C[C@@H](C(=O)NCc3ccc4c(cnn4C)c3)N(C(=O)[C@@H]3NCCC[C@@H]3C(=O)N(C)CCN3CC[C@H](F)C3)C2)cc1 [Example M06109, (2R,3S)-N-(2-((S)-3-fluoropyrrolidin-1-yl)ethyl)-N-methyl-2-((2S,4R)-2-(((1-methyl-1H-indazol-5-yl)methyl)carbamoyl)-4-(4-methylbenzyl)pyrrolidine-1-carbonyl)piperidine-3-carboxamide] | +++ (fold selectivity values greater than 100)
3 | < 200 | ∘∘∘ | Cc1ccc(C[C@@H]2C[C@@H](C(=O)NCc3ccc4c(cnn4C)c3)N(C(=O)[C@@H]3NCCC[C@@H]3C(=O)N(C)C3CCN(C4CC4)CC3)C2)cc1 [Example M06112, (2R,3S)-N-(1-cyclopropylpiperidin-4-yl)-N-methyl-2-((2S,4R)-2-(((1-methyl-1H-indazol-5-yl)methyl)carbamoyl)-4-(4-methylbenzyl)pyrrolidine-1-carbonyl)piperidine-3-carboxamide] | +++ (fold selectivity values greater than 100)
4 | < 200 | ∘∘∘ | CO[C@H]1CCN(CCN(C)C(=O)[C@H]2CCCN[C@H]2C(=O)N2C[C@H](Cc3ccc(C)cc3)C[C@H]2C(=O)NCc2ccc3c(cnn3C)c2)C1 [Example M06128, (2R,3S)-N-(2-((S)-3-methoxypyrrolidin-1-yl)ethyl)-N-methyl-2-((2S,4R)-2-(((1-methyl-1H-indazol-5-yl)methyl)carbamoyl)-4-(4-methylbenzyl)pyrrolidine-1-carbonyl)piperidine-3-carboxamide] | +++ (fold selectivity values greater than 100)
5 | < 200 | ∘∘∘ | Cc1ccc(C[C@@H]2C[C@@H](C(=O)NCc3ccc4c(cnn4C)c3)N(C(=O)[C@@H]3NCCC[C@@H]3C(=O)N(C)CCN3CC(F)(F)C3)C2)cc1 [Example M06129, (2R,3S)-N-(2-(3,3-difluoroazetidin-1-yl)ethyl)-N-methyl-2-((2S,4R)-2-(((1-methyl-1H-indazol-5-yl)methyl)carbamoyl)-4-(4-methylbenzyl)pyrrolidine-1-carbonyl)piperidine-3-carboxamide] | +++ (fold selectivity values greater than 100)
6 | < 200 | ∘∘∘ | Cc1ccc(C[C@@H]2C[C@@H](C(=O)NCc3ccc4c(cnn4C)c3)N(C(=O)[C@@H]3NCCC[C@@H]3C(=O)N(C)CCN(C)CCF)C2)cc1 [Example M06131, (2R,3S)-N-(2-((2-fluoroethyl)(methyl)amino)ethyl)-N-methyl-2-((2S,4R)-2-(((1-methyl-1H-indazol-5-yl)methyl)carbamoyl)-4-(4-methylbenzyl)pyrrolidine-1-carbonyl)piperidine-3-carboxamide] | +++ (fold selectivity values greater than 100)
